Test results as given in patent publication US5556859A, “N-(4-pyrimidinyl)amide pesticides” (DowElanco, priority 1994, dated 1996).

Experiments:
[1] = system: cotton aphid (Aphis gossypii); test: whole plant or invertebrate; details: 72 h, read-out: percent mortality, CA
[2] = system: German cockroach (Blattella germanicus); test: whole plant or invertebrate; details: 240 h, read-out: percent mortality, GECR
[3] = system: tobacco budworm (Heliothis virescens); test: Activity against tobacco budworm (TBW); format: in vivo; details: 144 h, read-out: percent mortality, TBW
Description: In conducting evaluations of insecticidal activity, each test compound was formulated as a 400 ppm solution, and this solution was then diluted with water to give lesser concentrations. The 400 ppm solution was prepared by combining 19.2 mL of 0.05% solution of Tween 20 (polyoxyethylene (20) sorbitan monolaurate) in water with a solution of 8 mg of the compound in 0.8 mL of acetone/EtOH (9/1).
Activity against tobacco budworm (Heliothis virescens) was evaluated as follows. A general purpose lepidoptera artificial diet was diluted to half strength with a 5% non nutritive agar. 8 mL of this diet material was dispensed into each one ounce diet cup. One hour prior to treatment 18 to 20 eggs were dispensed onto the diet surface. The cups were then sprayed with formulated material through a flat-fan nozzle. The test was run using concentrations of 400 ppm and 50 ppm. Treated cups were air dried prior to sealing with plastic caps. The cups were held for 6 days at room temperature. Activity was then rated based on the total number of live and dead larvae, and on the size of live larvae.

[4] = system: peanut root knot nematode (Meloidogyne arenaria); test: whole plant or invertebrate; details: in Arachis hypogaea, read-out: percent mortality, RKN
[5] = system: beet armyworm (Spodoptera exiqua); test: whole plant or invertebrate; details: 144 h, read-out: percent mortality, BAW
[6] = system: Southern corn rootworm (Diabrotica undecimpuctata howardi Barber); test: whole plant or invertebrate; details: in Zea mays, soil, read-out: percent mortality, SCRW
[7] = system: two spotted spider mite (Tetranychus urticae); test: whole plant or invertebrate; details: 72 h, read-out: percent mortality, TSSM

Structure (SMILES) | mortality at 400 ppm [1] | mortality at 400 ppm [2] | mortality at 400 ppm [3] | mortality at 400 ppm [4] | mortality at 400 ppm [5] | mortality at 24 µg/g [6] | mortality at 400 ppm [7]
CCc1nccc(NC(=O)Cc2ccc(Oc3ncc(C(F)(F)F)cc3F)cc2)n1 [Compound 32, 4-(3-fluoro-5-trifluromethyl-2-pyridinyloxy)phenyl-N-(2-ethyl-4-pyrimidinyl)acetamide] | 100% | 60% | 100% | 100% | 100% | 0% | 100%
O=C(Cc1ccc(Oc2ccc(Cl)cc2)cc1)Nc1ccnc(C2CC2)n1 [Compound 29, 4-(4-chlorophenoxy)phenyl-N-(2-cyclopropyl-4-pyrimidinyl)acetamide] | 100% | 100% | 100% | 0% | 100% | 0% | 100%
CCCc1nccc(NC(=O)Cc2ccc(OCC(F)(F)F)cc2)n1 [Compound 18, 4-(2,2,2-trifluroethoxy)phenyl-N-(2-propyl-4-pyrimidinyl)acetamide] | 100% | 20% | 80% | 100% | 100% | 0% | 80%
COCc1nccc(NC(=O)Cc2ccc(Oc3ccc(F)cc3)cc2)n1 [Compound 39, 4-(4-fluorophenoxy)phenyl-N-(2-(methoxymethyl)-4-pyrimidinyl)acetamide] | 100% | 100% | 100% | 100% | 100% | 0% | 100%
CCCc1nccc(NC(=O)Cc2ccc(Oc3ccc(F)cc3)cc2)n1 [Compound 19, 4-(4-fluorophenoxy)phenyl-N-(2-propyl-4-pyrimidinyl)acetamide] | 100% | 100% | 100% | 100% | 100% | 100% | 100%
COCc1nccc(NC(=O)Cc2ccc(OCC(F)(F)F)cc2)n1 [Compound 38, 4-(2,2,2-trifluroethoxy)phenyl-N-(2-(methoxymethyl)-4-pyrimidinyl)acetamide] | 0% | 0% | 0% | 0% | 0% | 0% | 0%
CC(C)c1nccc(NC(=O)Cc2ccc(OCC(F)(F)F)cc2)n1 [Compound 30, 4-(2,2,2-trifluroethoxy)phenyl-N-(2-(1-methylethyl)-4-pyrimidinyl)acetamide] | 100% | 80% | 90% | 100% | 100% | 100% | 100%
CCCCc1nccc(NC(=O)Cc2ccc(Oc3ccc(F)cc3)cc2)n1 [Compound 21, 4-(4-fluorophenoxy)phenyl-N-(2-butyl-4-pyrimidinyl)acetamide] | 100% | 100% | 100% | 90% | 100% | 0% | 100%
O=C(Cc1ccc(OCC(F)(F)F)cc1)Nc1ccncn1 [Compound 28, 4-(2,2,2-trifluroethoxy)phenyl-N-(4-pyrimidinyl)acetamide] | 100% | 0% | 0% | 0% | 0% | 0% | 0%
